Measured values reported in patent publication US7662973B2, “Fluorescent detection method and reagent” (GE Healthcare UK Limited, priority 2000, dated 2010).
Counter-ions that a name gives are not always drawn.

Experiments:
[1] = biological target: T1, Nitroreductase expressing cells (Escherichia coli, UniProt P38489); test: Cellular nitroreductase activity in living cells by flow cytometry; assay type: cell-based; conditions: 30 μM Cy3Qee, 2 hours 37° C.; 488 nm laser excitation, 585/42 nm emission
T1 construct: expressed in transfected cells
T1 sequence (P38489 whole entry): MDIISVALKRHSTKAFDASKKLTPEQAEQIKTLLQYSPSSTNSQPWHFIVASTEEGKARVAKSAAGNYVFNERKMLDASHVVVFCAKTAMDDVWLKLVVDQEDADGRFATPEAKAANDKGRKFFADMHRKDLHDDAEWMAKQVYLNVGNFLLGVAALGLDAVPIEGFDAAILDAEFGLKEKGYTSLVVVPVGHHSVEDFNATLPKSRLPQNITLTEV
Experimental: Nitroreductase expressing cells and control cells were incubated for 2 hours at 37° C. in tissue culture media containing 30 μM Cy3Qee. Following incubation cells were washed with phosphate buffered saline and trypsinised to produce cell suspensions for flow cytometry.
Cells were analysed using a FACScalibur flow cytometer (Becton Dickinson) using 488 nm laser excitation and a 585/42 nm emission filter. Results (FIG. 12) show a significant increase in fluorescence in nitroreductase expressing cells (mean fluorescence 169.9) compared with control cells (mean fluorescence 18.2).

[2] = biological target: T1, Nitroreductase expressing cells; test: Cellular nitroreductase activity in living cells with cell permeable substrates (plate reader); assay type: cell-based; conditions: 37° C.
Experimental: Cy3Qee (Formula IIIa) and Cy5Qee (Formula IIIb) were evaluated as cell permeable fluorescence substrates for nitroreductase measurement in living cells. Nitroreductase expressing cells and control cells were cultured at 10,000 cells/well in 96 well plates in tissue culture medium containing 10% foetal calf serum and incubated at 37° C. in the presence of 10 μM Cy3Qee or 30 μM Cy5Qee.

SKOV cells lysate = test: In vitro evaluation of cassette: ester linker cleavage by cell lysate; assay type: cell-based; conditions: 20 minutes 37° C., PBS pH 7.4, 1 mM NADH; 450 nm excitation
Experimental: (§1) Cy5Q-Cascade blue cassette (0.8 mM in acetate buffer pH 5.0) was diluted to […] in PBS pH 7.4 containing 1 mM NADH. A cell lysate was prepared from 2×10^7 SKOV cells by re-suspension of scraped cells in 5 ml PBS at 4° C. and repeated passage through a 25 gauge syringe needle. Aliquots (1 ml) of Cy5Q-Cascade blue were incubated with 500 μl of cell lysate or PBS for 20 minutes at 37° C. Following incubation 100 μl of a 1 ng/μl solution of E. coli B nitroreductase was added to one sample and incubation continued for 5 minutes. Aliquots ([…]) were then dispensed in quadruplicate from each sample to a 96 well plate for measurement of fluorescence on a Cytofluor plate reader using 450 nm excitation/530 nm emission filters for cascade blue and 610 nm excitation/670 nm emission for Cy5.

E. coli B nitroreductase = E. coli B nitroreductase (Escherichia coli, UniProt P38489); test: In vitro evaluation of cassette: reduction by nitroreductase; assay type: biochemical; conditions: after lysate incubation, 5 minutes with nitroreductase; 610 nm excitation
E. coli B nitroreductase, sequence (P38489 whole entry): as above
Experimental: as §1

[3] = 10 μM Cy3Qee, 530/25 nm excitation, 580/50 nm emission
[4] = 30 μM Cy5Qee, 610/20 nm excitation, 670/40 nm emission

In the case of `CCOC(=O)Cc1ccc2c(c1)C(C)(C)C(/C=C/C=C1/N(C)c3ccc(CC(=O)OCC)cc3C1(C)C)=[N+]2Cc1cc([N+](=O)[O-])cc([N+](=O)[O-])c1` [Cy3Qee], the “mean fluorescence, control cells” value [1] is reported as 18.2, the “mean fluorescence, nitroreductase expressing cells” value [1] is reported as 169.9 and the “fluorescence in control cells” value [2, 3] is reported as “minimal changes in fluorescence”. For the same molecule, the “fluorescence in nitroreductase expressing cells” value [2, 3] was “significant time dependent increase in fluorescence”.
`CC1(C)C(/C=C/C=C/C=C2/N(Cc3cc([N+](=O)[O-])cc([N+](=O)[O-])c3)c3ccc(S(=O)(=O)O)cc3C2(C)C)=[N+](CCCCCC(=O)Oc2cc(S(=O)(=O)O)c3ccc4c(S(=O)(=O)[O-])cc(S(=O)(=O)O)c5ccc2c3c45)c2ccc(S(=O)(=O)O)cc21` [Cy5Q-Cascade blue cassette] was tested, and the “fluorescence emission at 530 nm (Cascade Blue) in the presence of cell lysate” value (SKOV cells lysate) was “increase of fluorescence emission” and the “fluorescence emission at 670 nm (Cy5) when nitroreductase enzyme is present” value (E. coli B nitroreductase) was “increase in fluorescence emission”.
In the case of `CCOC(=O)Cc1ccc2c(c1)C(C)(C)C(/C=C/C=C/C=C1/N(C)c3ccc(CC(=O)OCC)cc3C1(C)C)=[N+]2Cc1cc([N+](=O)[O-])cc([N+](=O)[O-])c1` [Cy5Qee, 1-(3,5-dinitrobenzyl)-5-(2-ethoxy-2-oxoethyl)-2-{(1E,3E)-5-[6-(2-ethoxy-2-oxoethyl)-1,1,3-trimethyl-1,3-dihydro-2H-indol-2-ylidene]-1,3-pentadienyl}-3,3-dimethyl-3H-indoluim Salt], the “fluorescence in control cells” value [2, 4] is reported as “minimal changes in fluorescence” and the “fluorescence in nitroreductase expressing cells” value [2, 4] is reported as “significant time dependent increase in fluorescence”.
